The source made the active and inactive calls. The rule behind the calls is not given here.
Key:
[1] = molecular target: T1, Protein cereblon/Histone-lysine N-methyltransferase EHMT2 (Homo sapiens, UniProt Q96KQ7+Q96SW2); assay: PROTAC activity at CRBN/G9a in human ASPC1 cells assessed as induction of G9a degradation measured after 8 hrs by Western blot analysis; assay type: cell-based
Target sequence in this assay (Q96KQ7 whole entry): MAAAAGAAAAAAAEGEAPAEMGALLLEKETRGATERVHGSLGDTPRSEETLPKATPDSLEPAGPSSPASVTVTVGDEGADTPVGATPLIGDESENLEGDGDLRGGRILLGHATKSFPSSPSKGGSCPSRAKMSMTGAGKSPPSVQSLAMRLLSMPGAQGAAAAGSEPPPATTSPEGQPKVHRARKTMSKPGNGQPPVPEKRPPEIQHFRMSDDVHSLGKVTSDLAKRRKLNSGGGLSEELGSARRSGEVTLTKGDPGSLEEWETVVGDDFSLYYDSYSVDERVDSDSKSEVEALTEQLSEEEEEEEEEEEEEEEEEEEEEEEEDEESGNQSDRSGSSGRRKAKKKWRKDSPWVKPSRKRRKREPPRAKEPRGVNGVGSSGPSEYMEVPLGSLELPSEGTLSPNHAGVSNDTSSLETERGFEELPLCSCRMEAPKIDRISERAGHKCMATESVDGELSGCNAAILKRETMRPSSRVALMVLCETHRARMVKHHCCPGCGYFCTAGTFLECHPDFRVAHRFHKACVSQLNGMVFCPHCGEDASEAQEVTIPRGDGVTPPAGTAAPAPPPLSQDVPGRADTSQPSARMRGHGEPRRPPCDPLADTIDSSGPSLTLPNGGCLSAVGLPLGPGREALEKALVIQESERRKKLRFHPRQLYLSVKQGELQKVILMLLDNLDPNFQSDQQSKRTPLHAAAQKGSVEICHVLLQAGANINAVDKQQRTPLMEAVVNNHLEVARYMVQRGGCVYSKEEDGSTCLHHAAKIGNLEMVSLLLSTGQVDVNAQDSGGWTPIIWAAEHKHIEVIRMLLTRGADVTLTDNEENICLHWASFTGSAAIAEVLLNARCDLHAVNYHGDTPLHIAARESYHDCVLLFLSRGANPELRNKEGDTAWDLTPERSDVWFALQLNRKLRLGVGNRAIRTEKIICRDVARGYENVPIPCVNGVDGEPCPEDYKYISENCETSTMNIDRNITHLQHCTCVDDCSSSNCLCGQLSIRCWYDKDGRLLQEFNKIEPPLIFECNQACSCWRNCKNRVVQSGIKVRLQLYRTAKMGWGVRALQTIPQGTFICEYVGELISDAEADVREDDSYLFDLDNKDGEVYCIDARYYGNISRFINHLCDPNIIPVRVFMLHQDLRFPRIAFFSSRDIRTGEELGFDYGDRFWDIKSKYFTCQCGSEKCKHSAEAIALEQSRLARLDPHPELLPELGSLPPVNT
Target sequence in this assay (Q96SW2 whole entry): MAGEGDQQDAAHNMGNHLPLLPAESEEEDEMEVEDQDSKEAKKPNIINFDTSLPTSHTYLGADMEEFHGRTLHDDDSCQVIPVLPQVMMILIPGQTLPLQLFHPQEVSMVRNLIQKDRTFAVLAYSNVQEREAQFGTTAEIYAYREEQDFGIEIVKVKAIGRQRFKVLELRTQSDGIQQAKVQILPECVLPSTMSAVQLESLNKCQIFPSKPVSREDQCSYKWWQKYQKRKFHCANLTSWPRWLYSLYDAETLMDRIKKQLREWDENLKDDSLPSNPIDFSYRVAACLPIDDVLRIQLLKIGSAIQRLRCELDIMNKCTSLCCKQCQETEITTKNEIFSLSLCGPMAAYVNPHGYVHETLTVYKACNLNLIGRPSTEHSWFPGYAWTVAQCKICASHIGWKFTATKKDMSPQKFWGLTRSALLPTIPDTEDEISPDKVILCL

[2] = molecular target: T2, Protein cereblon/Histone-lysine N-methyltransferase EHMT1 (Homo sapiens) (UniProt Q9H9B1+Q96SW2); assay: PROTAC activity at CRBN/GLP in human ASPC1 cells assessed as induction of GLP degradation at 0.008 to 20 uM measured after 8 hrs by Western blot analysis; assay type: cell-based; settings: dose 0.008-20 µM
ASPC1 [3] = assay: Induction of apoptosis in human ASPC1 cells at 10 uM incubated for 24 hrs in presence of 1 uM MRTX1133 by Annexin V-FITC/PI staining based flow cytometry analysis; assay type: functional, cell-based
PANC-1 [4] = assay: Induction of apoptosis in human PANC-1 cells at 10 uM by Annexin V-FITC/PI staining based flow cytometry analysis; assay type: functional, cell-based; settings: time 12-72 hrs, TDE = time-dependent effect
[5] = Clearance in male ICR mouse at 5 mg/kg, iv measured upto 24 hrs by LC-MS/MS analysis; assay type: ADME, organism-based; settings: in vivo
PANC-1 [6] = assay: Effect on H3K27me3 level in human PANC-1 cells at 0.04 to 10 uM measured after 24 hrs by Western blot analysis; assay type: functional, cell-based; settings: dose 0.04-10 µM
ASPC1 [7] = assay: Antiproliferative activity against human ASPC1 cells assessed as inhibition of cell growth measured after 72 hrs by SRB assay; assay type: functional, cell-based
PANC-1 [8] = assay: Effect on GLP mRNA expression at transcriptional level in human PANC-1 cells at 0.1 to 10 uM by RT-qPCR analysis; assay type: functional, cell-based; settings: dose 0.1-10 µM
[9] = molecular target: T1, Protein cereblon/Histone-lysine N-methyltransferase EHMT2; assay: PROTAC activity at CRBN/G9a in human PANC-1 cells assessed as induction of G9a degradation at 1 uM pretreated with thalidomide for 2 hrs followed by compound addition and measured after 8 hrs by Western blot analysis; assay type: cell-based
Target sequence in this assay (Q96KQ7 2-1210 limits assumed): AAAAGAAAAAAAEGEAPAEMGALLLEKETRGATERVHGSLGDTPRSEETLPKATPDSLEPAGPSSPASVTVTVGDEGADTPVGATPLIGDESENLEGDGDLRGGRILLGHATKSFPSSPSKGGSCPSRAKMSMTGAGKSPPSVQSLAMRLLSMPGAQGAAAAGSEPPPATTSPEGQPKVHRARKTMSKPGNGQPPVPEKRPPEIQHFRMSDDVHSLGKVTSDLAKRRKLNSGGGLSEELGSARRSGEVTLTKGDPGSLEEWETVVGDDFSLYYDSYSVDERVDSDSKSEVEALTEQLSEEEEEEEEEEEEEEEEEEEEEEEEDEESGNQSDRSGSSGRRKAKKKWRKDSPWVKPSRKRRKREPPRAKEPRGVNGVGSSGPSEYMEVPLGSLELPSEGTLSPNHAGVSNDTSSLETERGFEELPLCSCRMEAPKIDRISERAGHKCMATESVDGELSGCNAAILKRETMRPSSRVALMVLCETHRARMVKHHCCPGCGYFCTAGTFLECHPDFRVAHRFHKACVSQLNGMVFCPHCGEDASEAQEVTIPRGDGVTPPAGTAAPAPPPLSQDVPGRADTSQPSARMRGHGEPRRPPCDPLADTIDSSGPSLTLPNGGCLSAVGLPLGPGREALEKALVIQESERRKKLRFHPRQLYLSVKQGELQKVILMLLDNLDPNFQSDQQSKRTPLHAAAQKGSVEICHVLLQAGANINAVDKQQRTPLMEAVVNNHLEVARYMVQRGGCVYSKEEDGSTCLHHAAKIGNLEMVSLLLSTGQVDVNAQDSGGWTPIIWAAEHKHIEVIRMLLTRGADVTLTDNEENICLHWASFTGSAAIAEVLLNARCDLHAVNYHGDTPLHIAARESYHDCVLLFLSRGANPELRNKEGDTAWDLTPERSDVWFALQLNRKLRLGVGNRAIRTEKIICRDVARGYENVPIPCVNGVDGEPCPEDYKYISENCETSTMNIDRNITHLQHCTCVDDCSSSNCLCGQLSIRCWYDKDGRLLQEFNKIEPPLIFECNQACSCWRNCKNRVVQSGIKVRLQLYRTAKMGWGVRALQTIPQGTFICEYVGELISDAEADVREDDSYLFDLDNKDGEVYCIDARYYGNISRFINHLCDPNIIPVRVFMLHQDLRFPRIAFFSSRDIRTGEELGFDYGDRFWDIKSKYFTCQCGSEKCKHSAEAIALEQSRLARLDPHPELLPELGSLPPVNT
Target sequence in this assay (Q96SW2 whole entry partner): as the sequence (Q96SW2 whole entry) above

ASPC1 [10] = assay: Synergistic antiproliferative activity against human ASPC1 cells assessed as combination index for ED90 upto 20 uM incubated for 72 hrs in presence of MRTX1133; assay type: functional
[11] = molecular target: T1, Protein cereblon/Histone-lysine N-methyltransferase EHMT2; assay: PROTAC activity at CRBN/G9a in human PANC-1 cells assessed as induction of G9a degradation at 1 uM measured after 8 to 24 hrs by Western blot analysis; assay type: cell-based; settings: time 8-24 hrs
Target sequence in this assay (Q96KQ7 2-1210 limits assumed): as the sequence (Q96KQ7 2-1210 limits assumed) above
Target sequence in this assay (Q96SW2 whole entry partner): as the sequence (Q96SW2 whole entry) above

[12] = AUC (0 to t) in male ICR mouse at 20 mg/kg, ip measured upto 24 hrs by LC-MS/MS analysis; assay type: ADME, organism-based; settings: in vivo
ASPC1 [13] = assay: Downregulation of H3K9me2 level in human ASPC1 cells at 10 uM incubated for 24 hrs in presence of 1 uM MRTX1133 by Western blot analysis; assay type: functional, cell-based
PANC-08-13 = assay: Synergistic antiproliferative activity against human PANC-08-13 cells assessed as combination index upto 20 uM incubated for 72 hrs in presence of MRTX1133; assay type: functional
PANC-1 [14] = assay: Induction of apoptosis in human PANC-1 cells measured after 24 hrs by Annexin V-FITC/PI staining based flow cytometry analysis; assay type: functional, cell-based; settings: dose 5-12.5 µM
PANC-1 [15] = assay: Upregulation of cleaved PARP level in human PANC-1 cells at 0.1 to 10 uM measured after 24 hrs by Western blot analysis; assay type: functional, cell-based; settings: dose 0.1-10 µM
[16] = Volume of distribution at steady state in male ICR mouse at 5 mg/kg, iv measured upto 24 hrs by LC-MS/MS analysis; assay type: ADME, organism-based; settings: in vivo, read-out: Vdss
[17] = molecular target: T2, Protein cereblon/Histone-lysine N-methyltransferase EHMT1 (Homo sapiens); assay: PROTAC activity at CRBN/GLP in human PANC-1 cells assessed as downregulation of GLP protein level at 1 uM in presence of 50 uM cycloheximide measured after 0 to 16 hrs by […]; assay type: cell-based; settings: time 0-16 hrs
ASPC1 [18] = assay: Synergistic antiproliferative activity against human ASPC1 cells at 0 to 15 uM incubated for 72 hrs in presence of MRTX1133 by SRB assay; assay type: functional, cell-based; settings: dose 0-15 µM
[19] = Cmax in male ICR mouse at 20 mg/kg, ip measured upto 24 hrs by LC-MS/MS analysis; assay type: ADME, organism-based; settings: in vivo
[20] = molecular target: T1, Protein cereblon/Histone-lysine N-methyltransferase EHMT2; assay: PROTAC activity at CRBN/G9a in human PANC-1 cells assessed as induction of G9a degradation at 0.1 uM measured after 24 hrs by Western blot analysis; assay type: cell-based
Target sequence in this assay (Q96KQ7 2-1210 limits assumed): as the sequence (Q96KQ7 2-1210 limits assumed) above
Target sequence in this assay (Q96SW2 whole entry partner): as the sequence (Q96SW2 whole entry) above

Panc 04.03 = assay: Antiproliferative activity against human Panc 04.03 cells assessed as inhibition of cell growth measured after 72 hrs by SRB assay; assay type: functional, cell-based
[21] = Half life in male ICR mouse at 5 mg/kg, iv measured upto 24 hrs by LC-MS/MS analysis; assay type: ADME, organism-based; settings: in vivo
SW1990 = assay: Antiproliferative activity against human SW1990 cells assessed as inhibition of cell growth measured after 72 hrs by SRB assay; assay type: functional, cell-based
PANC-1 [22] = assay: Downregulation of H3K9me2 expression in human PANC-1 cells at 0.1 to 10 uM measured after 24 hrs by Western blot analysis; assay type: functional, cell-based; settings: dose 0.1-10 µM
Panc 02.03 [23] = assay: Synergistic antiproliferative activity against human Panc 02.03 cells assessed as combination index for ED90 upto 20 uM incubated for 72 hrs in presence of MRTX1133; assay type: functional
[24] = AUC (0 to t) in male ICR mouse at 5 mg/kg, iv measured upto 24 hrs by LC-MS/MS analysis; assay type: ADME, organism-based; settings: in vivo
Panc1005 = assay: Synergistic antiproliferative activity against human Panc1005 cells assessed as combination index upto 20 uM incubated for 72 hrs in presence of MRTX1133; assay type: functional
Panc 02.03 [25] = assay: Antiproliferative activity against human Panc 02.03 cells assessed as inhibition of cell growth measured after 72 hrs by SRB assay; assay type: functional, cell-based
ASPC1 [26] = assay: Synergistic antiproliferative activity against human ASPC1 cells assessed as combination index upto 20 uM incubated for 72 hrs in presence of MRTX1133; assay type: functional
[27] = molecular target: T1, Protein cereblon/Histone-lysine N-methyltransferase EHMT2; assay: PROTAC activity at CRBN/G9a in human PANC-1 cells assessed as induction of G9a degradation at 1 uM pretreated with UNC0638 for 2 hrs followed by compound addition and measured after 8 hrs by Western blot analysis; assay type: cell-based
Target sequence in this assay (Q96KQ7 2-1210 limits assumed): as the sequence (Q96KQ7 2-1210 limits assumed) above
Target sequence in this assay (Q96SW2 whole entry partner): as the sequence (Q96SW2 whole entry) above

[28] = molecular target: T2, Protein cereblon/Histone-lysine N-methyltransferase EHMT1 (Homo sapiens); assay: PROTAC activity at CRBN/GLP in human PANC-1 cells assessed as induction of GLP degradation at 1 uM measured after 8 to 24 hrs by Western blot analysis; assay type: cell-based; settings: time 8-24 hrs
KP-4 [29] = assay: Inhibition of colony formation in human KP-4 cells at 5 to 10 uM in presence of MRTX1133 measured after 10 to 14 days by crystal violet staining based analysis; assay type: functional, cell-based; settings: dose 5-10 µM, time 10-14 day
PANC-1 [30] = assay: Effect on H3K4me1 level in human PANC-1 cells at 0.04 to 10 uM measured after 24 hrs by Western blot analysis; assay type: functional, cell-based; settings: dose 0.04-10 µM
KP-4 [31] = assay: Synergistic antiproliferative activity against human KP-4 cells at 0 to 10 uM incubated for 72 hrs in presence of MRTX1133 by SRB assay; assay type: functional, cell-based; settings: dose 0-10 µM
HPAF-II = assay: Synergistic antiproliferative activity against human HPAF-II cells assessed as combination index upto 20 uM incubated for 72 hrs in presence of MRTX1133; assay type: functional

T2 sequence (Q96SW2 whole entry, looked up): as the sequence (Q96SW2 whole entry) above
T2 sequence (Q9H9B1 whole entry, looked up): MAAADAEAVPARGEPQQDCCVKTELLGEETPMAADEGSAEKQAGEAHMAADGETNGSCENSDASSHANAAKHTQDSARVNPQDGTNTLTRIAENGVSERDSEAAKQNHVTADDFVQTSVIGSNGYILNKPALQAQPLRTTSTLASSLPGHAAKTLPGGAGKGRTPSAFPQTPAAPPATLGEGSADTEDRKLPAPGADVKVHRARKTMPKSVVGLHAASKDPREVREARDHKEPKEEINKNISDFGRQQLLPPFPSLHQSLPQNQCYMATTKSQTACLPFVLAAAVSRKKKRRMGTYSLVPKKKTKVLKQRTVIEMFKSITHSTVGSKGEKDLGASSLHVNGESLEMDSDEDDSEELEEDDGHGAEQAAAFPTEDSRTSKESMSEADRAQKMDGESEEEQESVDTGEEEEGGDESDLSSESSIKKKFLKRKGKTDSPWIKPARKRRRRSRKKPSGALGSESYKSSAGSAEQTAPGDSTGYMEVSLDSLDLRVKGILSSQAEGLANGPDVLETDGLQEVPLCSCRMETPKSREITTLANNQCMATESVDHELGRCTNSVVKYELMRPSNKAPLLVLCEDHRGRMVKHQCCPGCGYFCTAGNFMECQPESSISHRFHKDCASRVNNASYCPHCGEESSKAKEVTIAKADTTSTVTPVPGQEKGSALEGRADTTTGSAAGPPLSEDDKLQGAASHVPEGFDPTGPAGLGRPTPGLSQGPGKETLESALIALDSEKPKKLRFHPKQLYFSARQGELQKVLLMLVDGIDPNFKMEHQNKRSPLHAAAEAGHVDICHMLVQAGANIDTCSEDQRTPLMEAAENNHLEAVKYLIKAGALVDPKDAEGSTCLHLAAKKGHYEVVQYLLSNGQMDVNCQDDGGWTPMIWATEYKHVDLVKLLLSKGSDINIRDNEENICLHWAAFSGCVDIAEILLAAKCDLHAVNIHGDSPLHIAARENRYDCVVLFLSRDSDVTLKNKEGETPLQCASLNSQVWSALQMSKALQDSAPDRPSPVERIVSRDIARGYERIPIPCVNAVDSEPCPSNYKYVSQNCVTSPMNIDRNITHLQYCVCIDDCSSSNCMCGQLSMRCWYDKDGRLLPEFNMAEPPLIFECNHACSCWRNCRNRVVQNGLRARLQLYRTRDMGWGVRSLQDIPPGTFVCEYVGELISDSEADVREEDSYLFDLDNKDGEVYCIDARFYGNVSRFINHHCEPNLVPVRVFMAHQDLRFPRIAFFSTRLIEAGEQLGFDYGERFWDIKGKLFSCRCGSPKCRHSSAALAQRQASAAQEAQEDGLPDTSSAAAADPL

## COc1cc2c(NC3CCN(CCCC(=O)NCCCCCCCCNc4cccc5c4C(=O)N(C4CCC(=O)NC4=O)C5=O)CC3)nc(C3CCCCC3)nc2cc1OCCCN1CCCC1 (stereo unspecified)
[1]
  DC50: 200 nM
[2]
  Activity: inactive
ASPC1 [3]
  Activity: Active
PANC-1 [4]
  Activity: Tde
[5]
  clearance: 22.4 mL/min/kg
PANC-1 [6]
  Activity: inactive
ASPC1 [7]
  Activity: Active
PANC-1 [8]
  Activity: inactive
[9]
  Activity: inactive
ASPC1 [10]
  CI: <0.4
[11]
  Activity: Active
[12]
  AUC(0-t) at 24 h: 6150 ng·h/mL
ASPC1 [13]
  Activity: Active
PANC-08-13
  CI: <0.8
PANC-1 [14]
  Activity: Dose-Dependent Effect
PANC-1 [15]
  Activity: Active
[16]
  Vd: 2.61 L/kg
[17]
  Activity: inactive
ASPC1 [18]
  Activity: Active
[19]
  Cmax: 2670 ng/mL
[20]
  Activity: Active
Panc 04.03
  Activity: Active
[21]
  half-life: 5.3 h
SW1990
  Activity: Active
PANC-1 [22]
  Activity: Active
Panc 02.03 [23]
  CI: <0.4
[24]
  AUC(0-t) at 24 h: 3780 ng·h/mL
Panc1005
  CI: <0.8
Panc 02.03 [25]
  Activity: Active
ASPC1 [26]
  CI: <0.8
[27]
  Activity: inactive
[28]
  Activity: inactive
KP-4 [29]
  inhibition: Active
PANC-1 [30]
  Activity: inactive
KP-4 [31]
  Activity: Active
HPAF-II
  CI: <0.8

Source: ChEMBL document CHEMBL5523762, “Discovery of Potent and Selective G9a Degraders for the Treatment of Pancreatic Cancer” (J Med Chem, 2024)
